Results taken from patent publication US4284621A, “Agents for protection against light” (Bayer Aktiengesellschaft, priority 1978, dated 1981).
Where a name gives a salt, the structure may show the parent alone.

Tests used:
[1] = UV absorption spectral data (wavelength λmax, molar extinction ε, specific extinction E1^1); type: physicochemical; set-up: Wavelength λmax: unit not given beside the values; settings: for Molar extinction ε: in M-1cm-1; for specific extinction (in words, compared with compounds of formula I): comparison with compounds of formula I
[2] = Solubilities at room temperature (20-25° C.) in groundnut oil and groundnut oil/liquid paraffin 1:9; type: physicochemical
14 day LD 50 (tolerance) = type: in vivo
[3] = Table 1, second value, in parentheses

| Compound | Specific extinction E1^1 ([1]; Table 1) | Wavelength λmax ([1]; Table 1) | Molar extinction ε ([1]; Table 1) | Specific extinction E1^1 ([1]; Table II) | Wavelength λmax (nm) ([1]; Table II) | Molar extinction ε ([1]; Table II) | other results |
| --- | --- | --- | --- | --- | --- | --- | --- |
| COC(=O)C(=Cc1ccc(N(C)C)cc1)C(=O)OC [4-Dimethylaminobenzylidenemalonic acid dimethyl ester] | 1,200 | 375 | 31,400 |  |  |  |  |
| COC(=O)C(C#N)=Cc1ccc(Cl)cc1 [4-Chlorobenzylidenecyanoacetic acid methyl ester] | 940 | 313 | 20,900 |  |  |  |  |
| COC(=O)C(C#N)=Cc1cccc(OC)c1 [3-Methoxybenzylidenecyanoacetic acid methyl ester] | 710 | 299 | 15,300 |  |  |  |  |
| CCCCCCOC(=O)C(C#N)=Cc1ccc(OC)cc1 [n-Hexyl, 4-methoxy-benzylidene-cyanoacetic acid n-hexyl ester] |  |  |  | 990 | 342 | 28,500 | 14 day LD 50 (14 day LD 50 (tolerance)): 5.71 mL/kg; Solubility at room temperature in groundnut oil/liquid paraffin 1:9 (%) [2]: 90% |
| CCOC(=O)C(=Cc1ccc(O)c(OC)c1)C(C)=O [4-Hydroxy-3-methoxybenzylideneacetoacetic acid ethyl ester] | 690 | 340 | 18,200 |  |  |  |  |
| CCOC(=O)C(=Cc1ccc(OC)c(OC)c1)C(=O)OCC [3,4-Dimethoxybenzylidenemalonic acid diethyl ester] | 670 | 308 | 20,500 |  |  |  |  |
| COC(=O)C(C#N)=Cc1ccc(OC)c(OC)c1 [3,4-Dimethoxybenzylidenecyanoacetic acid methyl ester] | 970 | 360 | 24,000 |  |  |  |  |
| COC(=O)C(C#N)=Cc1ccccc1OC [2-Methoxybenzylidenecyanoacetic acid methyl ester] | 470 | 354 | 10,300 |  |  |  | Molar extinction ε (value in parentheses) [1, 3]: 12,100; Specific extinction E1^1 (value in parentheses) [1, 3]: 560; Wavelength λmax (value in parentheses) [1, 3]: 297 |
| CCCCCCCCCCCCOC(=O)C(C#N)=Cc1ccc(OC)cc1 [n-Dodecyl] |  |  |  | 770 | 342 | 28,450 | Solubility at room temperature in groundnut oil (%) [2]: 14% |
| COc1ccc(C(=O)CC(=O)c2ccc(OC)cc2)cc1 [(3), dianisoylmethane] |  |  |  |  |  |  | Solubility at room temperature in groundnut oil (%) [2]: 1% |
| COC(=O)C(C#N)=Cc1cccc(N)c1 [3-Aminobenzylidenecyanic acid methyl ester] | 830 | 310 | 16,800 |  |  |  |  |
| CN(C)c1ccc(C=C(C(N)=O)C(N)=O)cc1 [4-Dimethylaminobenzylidenemalonic acid diamide] | 870 | 369 | 20,400 |  |  |  |  |
| COC(=O)C(C#N)=Cc1ccc(N(C)C)cc1 [4-Dimethylaminobenzylidenecyanoacetic acid methyl ester] | 870 | 421 | 19,900 |  |  |  |  |
| 4-methoxy-benzylidene-cyanoacetic acid isononyl ester [iso-Nonyl] |  |  |  | 860 | 341 | 28,400 | 14 day LD 50 (14 day LD 50 (tolerance)): 20.76 mL/kg |
| COC(=O)C(C#N)=Cc1ccc(O)c(OC)c1 [4-Hydroxy-3-methoxybenzylidenecyanoacetic acid methyl ester] | 960 | 366 | 22,400 |  |  |  |  |
| CCOC(=O)C(=Cc1cccc(O)c1)C(=O)OCC [3-Hydroxybenzylidenemalonic acid diethyl ester] | 770 | 282 | 20,300 |  |  |  |  |
| COC(=O)C(C#N)=Cc1cccc(O)c1 [3-Hydroxybenzylidenecyanoacetic acid methyl ester] | 900 | 303 | 18,200 |  |  |  |  |

More lines, main results first:

| Specific extinction E1^1 ([1]; Table 1) | Wavelength λmax ([1]; Table 1) | Molar extinction ε ([1]; Table 1) | Specific extinction E1^1 ([1]; Table II) | Wavelength λmax (nm) ([1]; Table II) | Molar extinction ε ([1]; Table II) | Compound | other results |
| --- | --- | --- | --- | --- | --- | --- | --- |
|  |  |  | 910 | 341 | 30,000 | CCCCCCCCCOC(=O)C(C#N)=Cc1ccc(OC)cc1 [n-Nonyl] | Solubility at room temperature in groundnut oil (%) [2]: 55%; Solubility at room temperature in groundnut oil/liquid paraffin 1:9 (%) [2]: 10% |
| 510 | 325 | 15,900 |  |  |  | COc1ccc(C=C(C#N)C(=O)N(CC(C)C)CC(C)C)cc1 [4-Methoxybenzylidenecyanoacetic acid diisobutylamide] |  |
| 1,350 | 340 | 29,300 |  |  |  | COC(=O)C(C#N)=Cc1ccc(OC)cc1 [4-Methoxybenzylidenecyanoacetic acid methyl ester] |  |
|  |  |  | 645 | 351 | 15,900 | O=C(c1ccc(O)cc1O)c1ccc(O)cc1O [(2), 2,2',4,4'-tetrahydroxybenzophenone] | specific extinction (in words, compared with compounds of formula I) ([1]; Table II): significantly lower specific extinction; Solubility at room temperature in groundnut oil (%) [2]: 0.8% |
| 630 | 332 | 20,750 |  |  |  | CCOC(=O)C(=Cc1ccc(O)c(OC)c1)C(=O)OCC [4-Hydroxy-3-methoxybenzylidenemalonic acid diethyl ester] |  |
| 520 |  | 14,000 |  |  |  | COC(=O)C(C#N)=C(c1ccccc1)c1ccccc1 [α-Cyano-β,β-diphenyl-acrylic acid methyl] |  |
| 1,350 | 348 | 27,300 |  |  |  | COC(=O)C(C#N)=Cc1ccc(O)cc1 [4-Hydroxybenzylidenecyanoacetic acid methyl ester] |  |
|  |  |  | 810 | 341 | 27,700 | CCCCCCCCCCOC(=O)C(C#N)=Cc1ccc(OC)cc1 [n-Decyl, 4-methoxy-benzylidene-cyanoacetic acid n-decyl ester] |  |
| 740 | 312 | 24,800 |  |  |  | COc1ccc(C=C(C(=O)OCC(C)C)C(=O)OCC(C)C)cc1 [4-Methoxybenzylidenemalonic acid diisobutyl ester] |  |
|  |  |  | 1,050 | 341 | 28,600 | CCCCCOC(=O)C(C#N)=Cc1ccc(OC)cc1 [n-Pentyl] | Solubility at room temperature in groundnut oil (%) [2]: 6-7%; Solubility at room temperature in groundnut oil/liquid paraffin 1:9 (%) [2]: 1.4% |
|  |  |  | 160 | 330 | 5,920 | COc1ccc(C(=O)c2cc(S(=O)(=O)O)c(OC)cc2O)c(O)c1 [(1), sodium salt of 2,2'-dihydroxy-4,4'-dimethoxybenzophenone-5-sulphonic acid] | specific extinction (in words, compared with compounds of formula I) ([1]; Table II): significantly lower specific extinction |
| 770 | 316 | 19,000 |  |  |  | CCOC(=O)C(=Cc1ccc(OC)cc1)C(C)=O [4-Methoxybenzylideneacetoacetic acid ethyl ester] |  |
|  |  |  | 970 | 341 | 30,500 | CCCCCCCCOC(=O)C(C#N)=Cc1ccc(OC)cc1 [n-Octyl, 4-methoxy-benzylidene-cyanoacetic acid n-octyl ester] | Solubility at room temperature in groundnut oil/liquid paraffin 1:9 (%) [2]: 90% |
|  |  |  | 940 | 341 | 28,300 | CCCCCCCOC(=O)C(C#N)=Cc1ccc(OC)cc1 [n-Heptyl] | Solubility at room temperature in groundnut oil (%) [2]: 33%; Solubility at room temperature in groundnut oil/liquid paraffin 1:9 (%) [2]: 7% |
| 460 | 318 | 10,900 |  |  |  | COC(=O)C(C#N)=C(C)c1ccc(OC)cc1 [α-Cyano-β-methyl-β-(4-methoxyphenyl)-acrylic acid methyl ester] |  |
| 1,230 | 317 | 25,000 |  |  |  | COC(=O)C(C#N)=Cc1ccc(C)cc1 [4-Methylbenzylidenecyanoacetic acid methyl ester] |  |
|  |  |  | 790 | 341 | 27,000 | 4-methoxy-benzylidene-cyanoacetic acid isodecyl ester [iso-Decyl] |  |
|  |  |  | 1,090 | 342 | 28,300 | CCCCOC(=O)C(C#N)=Cc1ccc(OC)cc1 [n-Butyl] | Solubility at room temperature in groundnut oil (%) [2]: 17%; Solubility at room temperature in groundnut oil/liquid paraffin 1:9 (%) [2]: 3% |
| 1,200 | 332 | 24,300 |  |  |  | COc1ccc(C=C(C#N)C(N)=O)cc1 [4-Methoxybenzylidenecyanoacetic acid amide] |  |
| 1,530 | 337 | 27,000 |  |  |  | COC(=O)C(C#N)=Cc1ccco1 [Furfurylidenecyanoacetic acid methyl ester] |  |
| 1,230 | 312 | 23,000 |  |  |  | C=C(C)C(=O)Oc1ccc(C=C(C#N)C(=O)OC)cc1 [4-Methacryloxybenzylidenecyanoacetic acid methyl ester] |  |
